Measured values: patent publication US20250228865A1, “COMPOUNDS FOR ENHANCING READ THROUGH OF GENES CONTAINING PREMATURE TERMINATION CODONS AND METHODS FOR MAKING AND USING THE SAME” (Sanofi US Services Inc., priority 2022, published 2025)

Assays:
[1] = system: recombinant human CFTR carrying the premature stop codon (PTC) mutation R1162X; experiment: CFTR-PTC mutant translation readthrough, Nanoluc tagged CFTR luminescence (R1162X cell line); assay type: cell-based; conditions: for CFTR R1162X ACTIVITY Fold 10 μM G-418: fold over 10 μM G-418, in combination with G418; for EC50: in combination with G418, 16HBE cells, read-out: CFTR R1162X ACTIVITY EC50
Method: (§1) 16HBE human bronchial epithelial cells (stably over-expressing recombinant human CFTR carrying the premature stop codon (PTC) mutation G542X or R1162X along with a Nanoluc tag incorporated into the CFTR channel within extracellular loop 4 in G542X cell line or C-terminus end in the R1162X cell line were seeded at 0.01×10^6 cells/well and grown in Minimal Essential Medium (MEM) as monolayers in 384 well plates and incubated at 37° C. with 5% CO2. Media was changed every other day until day of experiment. Agents to be evaluated were made up in separate 384 well, polypropylene plates at a 2X the final desired test concentration. Test agent 10-point concentration response curves were constructed using the Labcyte Echo 555 acoustic dispenser. Test agents were typically tested at a max final test concentrations of 50 μM with sequential 2-fold lower concentrations below this in the absence or presence of a fixed 10 μM concentration of the aminoglycoside G418 made up in MEM growth media (reduced Serum Media+HEPES Buffer+2.4 g/L Sodium Bicarbonate+L-Glutamine containing CFTR corrector VX-809 (3 μM)). Treatment with 10 μM G418 alone produced approximately 10% of the response observed with a maximally effective concentration of G418 (typically 125-250 μM). Test agent effects in presence of 10 μM G418 were compared to control wells on the plate containing a maximally effective concentration of G418 (typically 125-250 μM) made up in the same media. 25 ul of test agents/control solutions were transferred from the compound plate to the cell plate, which already contained 25 ul/well of cell plating media, using an Integra Viaflo 384. Cell plates were incubated with the compounds for 48 hours, at which time they were processed using Nanoluc luminescence Kit (Promega Nano-Glo Live Cell Assay System) to measure CFTR-PTC mutant translation readthrough. Luminescence was measured as follows. Cell plates were removed from the incubator and allowed to equilibrate to room temperature for 20 minutes. Media was removed from all wells and the plates were blotted to remove excess remaining volume. Nano-Glo Live Cell Substrate was diluted 1:20 in the appropriate amount of Nano-Glo LCS Dilution Buffer to accommodate the number of cell plates being tested. The substrate/dilution buffer mix was then diluted 1:3 with MEM media to make the appropriate volume for the number of plates being tested. The substrate/dilution buffer/OptiMEM mix was added across the Nanoluc testing cell plates and the plates were read for luminescence signal immediately. Test agent effects on CFTR translation readthrough was determined by normalizing any observed increase in luminescence induced by 48 hours pretreatment with test compound to the magnitude of luminescence increase produced by pretreatment with a maximally effective concentration of the reference readthrough enhancing agent G418 (125-250 μM).

[2] = system: recombinant human CFTR carrying the premature stop codon (PTC) mutation G542X; experiment: CFTR-PTC mutant translation readthrough, Nanoluc tagged CFTR luminescence (G542X cell line); assay type: cell-based; conditions: in combination with G418, G542X cell line; for CFTR G542X ACTIVITY Fold 10 μM G-418: fold over 10 μM G-418; for EC50: 16HBE cells
Method: as §1

SMILES: NC(=O)c1ccc(OCc2c(Cl)cccc2Cl)cn1 [5-[(2,6-dichlorophenyl)methoxy]pyridine-2-carboxamide]
- CFTR R1162X ACTIVITY Fold 10 μM G-418 [1]: B′ (B′ = ≥5X to <10X)
- EC50 [1]: 1 to 10 µM
- CFTR G542X ACTIVITY Fold 10 μM G-418 [2]: A′ (A′ = ≥10X)
- EC50 [2]: 1000 to 10000 nM

SMILES: Cc1cccc(C(F)(F)F)c1COc1ccc(-n2cnc(Cn3cnc(CO)c3)c2)nc1
- CFTR R1162X ACTIVITY Fold 10 μM G-418 [1]: A′ (A′ = ≥10X)
- EC50 [1]: 1 to 10 µM
- CFTR G542X ACTIVITY Fold 10 μM G-418 [2]: A′ (A′ = ≥10X)
- EC50 [2]: 1000 to 10000 nM

SMILES: OCC1CN(c2ccc(OCc3c(Cl)cccc3Cl)cn2)CCO1 (stereo not drawn) [[4-[5-[(2,6-dichlorophenyl)methoxy]-2-pyridyl]morpholin-2-yl]methanol]
- CFTR R1162X ACTIVITY Fold 10 μM G-418 [1]: A′ (A′ = ≥10X)
- EC50 [1]: 1 to 10 µM
- CFTR G542X ACTIVITY Fold 10 μM G-418 [2]: A′ (A′ = ≥10X)
- EC50 [2]: 1000 to 10000 nM

SMILES: CC(=O)N[C@H](CO)C(=O)Nc1ccc(OCc2c(Cl)cccc2Cl)cn1
- CFTR R1162X ACTIVITY Fold 10 μM G-418 [1]: C′ (C′ = <5X)
- EC50 [1]: > 10 µM
- CFTR G542X ACTIVITY Fold 10 μM G-418 [2]: C′ (C′ = <5X)
- EC50 [2]: > 10000 nM

SMILES: OC1CCCN(c2ncc(OCc3c(Cl)cccc3Cl)cn2)C1 (stereo not drawn) [1-[5-[(2,6-dichlorophenyl)methoxy]pyrimidin-2-yl]piperidin-3-ol]
- CFTR R1162X ACTIVITY Fold 10 μM G-418 [1]: A′ (A′ = ≥10X)
- EC50 [1]: 1 to 10 µM
- CFTR G542X ACTIVITY Fold 10 μM G-418 [2]: A′ (A′ = ≥10X)
- EC50 [2]: < 1000 nM

SMILES: CC(=O)NC[C@@H]1CN(c2ncc(OCc3c(C)cccc3C(F)(F)F)cn2)CCO1
- CFTR R1162X ACTIVITY Fold 10 μM G-418 [1]: A′ (A′ = ≥10X)
- EC50 [1]: 1 to 10 µM
- CFTR G542X ACTIVITY Fold 10 μM G-418 [2]: A′ (A′ = ≥10X)
- EC50 [2]: < 1000 nM

SMILES: FC(F)(F)c1cccc(Cl)c1COc1cnc(N2CCCC3(CCNC3)C2)nc1 (stereo not drawn)
- CFTR R1162X ACTIVITY Fold 10 μM G-418 [1]: B′ (B′ = ≥5X to <10X)
- EC50 [1]: 1 to 10 µM
- CFTR G542X ACTIVITY Fold 10 μM G-418 [2]: B′ (B′ = ≥5X to <10X)
- EC50 [2]: 1000 to 10000 nM

SMILES: O=C1O[C@@H](CO)CN1c1ccc(OCc2c(Cl)cccc2C(F)(F)F)cn1
- CFTR R1162X ACTIVITY Fold 10 μM G-418 [1]: A′ (A′ = ≥10X)
- EC50 [1]: 1 to 10 µM
- CFTR G542X ACTIVITY Fold 10 μM G-418 [2]: A′ (A′ = ≥10X)
- EC50 [2]: 1000 to 10000 nM

SMILES: CNC(=O)C1CCN(c2ncc(OCc3c(Cl)cccc3Cl)cn2)CC1
- CFTR R1162X ACTIVITY Fold 10 μM G-418 [1]: A′ (A′ = ≥10X)
- EC50 [1]: 1 to 10 µM
- CFTR G542X ACTIVITY Fold 10 μM G-418 [2]: A′ (A′ = ≥10X)
- EC50 [2]: 1000 to 10000 nM

SMILES: O=C(NCC1CN(c2ncc(OCc3c(Cl)cccc3Cl)cn2)CCO1)C(F)(F)F (stereo not drawn)
- CFTR R1162X ACTIVITY Fold 10 μM G-418 [1]: B′ (B′ = ≥5X to <10X)
- EC50 [1]: 1 to 10 µM
- CFTR G542X ACTIVITY Fold 10 μM G-418 [2]: A′ (A′ = ≥10X)
- EC50 [2]: 1000 to 10000 nM

SMILES: Cc1cccc(C(F)(F)F)c1COc1ccc(-n2cnc(C(=O)O)n2)cc1
- CFTR R1162X ACTIVITY Fold 10 μM G-418 [1]: A′ (A′ = ≥10X)
- EC50 [1]: 1 to 10 µM
- CFTR G542X ACTIVITY Fold 10 μM G-418 [2]: A′ (A′ = ≥10X)
- EC50 [2]: 1000 to 10000 nM

SMILES: O=C1CCN(c2ncc(OCc3c(Cl)cccc3C(F)(F)F)cn2)C(=O)N1
- EC50 [1]: > 10 µM
- CFTR G542X ACTIVITY Fold 10 μM G-418 [2]: C′ (C′ = <5X)
- EC50 [2]: 1000 to 10000 nM

SMILES: CC1(C)CN(c2ncc(OCc3c(Cl)cccc3Cl)cn2)CC(CO)O1 (stereo not drawn)
- CFTR R1162X ACTIVITY Fold 10 μM G-418 [1]: A′ (A′ = ≥10X)
- EC50 [1]: 1 to 10 µM
- CFTR G542X ACTIVITY Fold 10 μM G-418 [2]: A′ (A′ = ≥10X)
- EC50 [2]: 1000 to 10000 nM

SMILES: OCc1cn(-c2ccc(OCc3c(Cl)cccc3C(F)(F)F)cn2)cn1
- CFTR R1162X ACTIVITY Fold 10 μM G-418 [1]: A′ (A′ = ≥10X)
- EC50 [1]: 1 to 10 µM
- CFTR G542X ACTIVITY Fold 10 μM G-418 [2]: A′ (A′ = ≥10X)
- EC50 [2]: < 1000 nM

SMILES: Cc1cccc(C(F)(F)F)c1COc1cnc(N2CCN(CCOCCO)CC2)nc1
- CFTR R1162X ACTIVITY Fold 10 μM G-418 [1]: A′ (A′ = ≥10X)
- EC50 [1]: 1 to 10 µM
- CFTR G542X ACTIVITY Fold 10 μM G-418 [2]: A′ (A′ = ≥10X)
- EC50 [2]: 1000 to 10000 nM

SMILES: OCc1cn(-c2ccc(OCc3c(Cl)cccc3C(F)(F)F)cc2)nn1 [[1-[4-[[2-chloro-6-(trifluoromethyl)phenyl]methoxy]phenyl]triazol-4-yl]methanol]
- CFTR R1162X ACTIVITY Fold 10 μM G-418 [1]: A′ (A′ = ≥10X)
- EC50 [1]: 1 to 10 µM
- CFTR G542X ACTIVITY Fold 10 μM G-418 [2]: A′ (A′ = ≥10X)
- EC50 [2]: 1000 to 10000 nM
